# Measured values reported in US11666580B2, “Mechanism of resistance to bet bromodomain inhibitors” (Dana-Farber Cancer Institute, Inc., priority 2015, dated 2023).
# How the values were obtained:
# [1] = system: SUM149, SUM149R, SUM159, and SUM159R cells; test: Synergy studies (ATPlite, combination indices, isobolograms); format: cell-based, human
# Method: SUM149, SUM149R, SUM159, and SUM159R cells were seeded in sterile, white, opaque 384-well microtiter plates (Thermo), using an automated dispensing system (BioTek EL406), at 1,000 cells per well in 50 μl of media. Drugs were delivered in DMSO by robotic pin transfer with a JANUS workstation (100 nl) to achieve a matrix of pairwise dose-response incubations of each compound, each pair having eight replicates. Following 72 hours of incubation, ATP levels were determined for treated cells and vehicle controls (ATPlite, PerkinElmer). Data were normalized to vehicle controls. Combination indices were determined using the median-effect principle of Chou and Talalay^49 (CalcuSyn Software). Isobologram plots were generated with GraphPad Prism software. Points represent paired values of drug concentrations assessed for synergism. The diagonal line signifies drug additivity. Points above the line represent antagonistic drug combinations, and those below the line represent synergistic drug combinations. Synergy assays were performed in triplicates and repeated 2-3 times.
# [2] = system: MDR (multi drug resistance) pumps in SUM159 and SUM159R cells; test: Multi-Drug Resistance (MDR) assay; format: cell-based, human; details: with JQ1
# Method: Cell viability and growth assays (FIGS. 1A-1B, FIGS. 3A-3E, 3G, FIGS. 5D-5F, FIGS. 6C, 6E, 6I, FIG. 7A, FIG. 10D, FIGS. 14A-14C), cycle, apoptosis, and MDR assays were performed in triplicates and repeated 2-3 times. For cell proliferation assays, cells were plated at 500 cells per well in 96-well plates and treated the next day with inhibitors, DMSO or doxycycline (500 ng). Cells were cultured at 37° C. with 5% CO2 in the media described-above, and cell viability was measured using CellTiter-Glo three days after treatments. For cell growth assays, cells were plated at 5000 (SUM159) or 20000 (SUM149) cells per well in 6-well plates and treated the next day with inhibitors. Cells were counted every three days by cell counter. Cellular apoptosis was analyzed with an APC AnnexinV/7ADD Apoptosis Detection kit (BD Pharmingen). AnnexinV/7AAD assessments and cell cycle graphics were generated using FlowJo software V7.6.1 for Windows (Tree Star). Senescence Beta-gal staining was performed using Senescence β-Galactosidase staining kit from Cell signaling. Briefly, after JQ1 treatment (500 nM) for 72 h, SUM159 and MDA-MB-231 cells were fixed by Fixative Solution for 15 min, followed by β-Galactosidase solution incubation overnight at 37° C. The staining was checked under microscope for the development of blue color. […]
# [3] = system: xenografts derived from SUM159R cells; test: Xenograft assay, SUM159R (BBI-resistant SUM159); format: in vivo, mice; details: administered along with JQ1
# Method: (§1) For xenograft assays 5-6-weeks old female CrTac:NCr-Foxn1^nu and NOD.Cg-Prkdc^scid Il2rg^tm1Sug/JicTac mice were purchased from Taconic. Tumors were induced by bilateral orthotopic mammary fat pad injection of 1×10^6 cells in 50% Matrigel (BD Biosciences) in DMEM/F12 or Medium 171 (except for IDC50-X cells, which were injected with 3% FBS and 4 mg/ml collagen gel in Medium 171). Animal experiments were conducted following protocol 11-023 approved by the Dana-Farber Cancer Institute Animal Care and Use Committee.
# [4] = system: tumors derived from BBI-resistant SUM149 cells; test: Xenograft assay, BBI-resistant SUM149; format: in vivo, mice; details: administered along with JQ1
# Method: as §1
# [5] = system: BRD4-MED1 association in SUM159R cells; test: BRD4 immunoprecipitation followed by immunoblot for MED1, resistant cells; format: cell-based, human; details: SUM159R, 3 hrs treatment
# Method: Cells were lysed five days after transfection with siRNAs in RIPA buffer. Proteins were resolved in SDS-polyacrylamide gels (4%-12%) and transferred to PVDF membranes by using a Tris-glycine buffer system. […] Cells were incubated on ice for 15 min and gently vortexed every 5 min. […] After centrifugation of the lysates at 14 g for 10 min at 4° C., supernatant was diluted with 0.6 ml buffer A, and added NP-40 to final 0.5% and treated with DNase I. The samples were then incubated at 4° C. overnight with BRD4 or Flag antibodies at 1:100 dilution and immunoprecipitates were collected on Dynabeads Protein G for 2 hr. Beads were washed with buffer B containing 150 mM NaCl and 0.5% NP-40 three times and then resuspended in gel loading buffer. Immunoblotting and immunoprecipitation experiments were repeated 2-3 times.
# phospho-BRD4 (pBRD4) = test: Immunoblot analysis of phospho-BRD4; format: cell-based, human; details: SUM159R, SUM149R, and other cell lines; short-term treatment
# From the text: Immunoblotting and immunoprecipitation experiments were repeated 2-3 times.
# [6] = summary statement, resistant cells
Compound,"Synergy with JQ1 [1, 6]","Synergy with JQ1 ([1]; synergy screens, 72 hours)",Tumor weight [3],Tumor weight [4],further results
OCCN1CCN(CCCN2c3ccccc3Sc3ccc(Cl)cc32)CC1 [perphenazine],substantial synergy,Significant synergy,,,
COc1ccc(CCN(C)CCCC(C#N)(c2ccc(OC)c(OC)c2)C(C)C)cc1OC (centres unmarked) [verapamil],,,,,Effect of co-incubation with MDR1 inhibitor on BBI-resistance [2]: had no effect
N#CC[C@H](C1CCCC1)n1cc(-c2ncnc3[nH]ccc23)cn1 [INC424],,,reduced tumor weight to a greater extent than the corresponding single therapy and JQ1 alone,reduced tumor weight to a greater extent than the corresponding single therapy and JQ1 alone,
"CC1(C)CCC(c2ccc(Cl)cc2)=C(CN2CCN(c3ccc(C(=O)NS(=O)(=O)c4ccc(N[C@H](CCN5CCOCC5)CSc5ccccc5)c(S(=O)(=O)C(F)(F)F)c4)cc3)CC2)C1 [ABT 263, 4-[4-[[2-(4-chlorophenyl)-5,5-dimethylcyclohexen-1-yl]methyl]piperazin-1-yl]-N-[4-[[(2R)-4-morpholin-4-yl-1-phenylsulfanylbutan-2-yl]amino]-3-(trifluoromethylsulfonyl)phenyl]sulfonylbenzamide]",substantial synergy,,reduced tumor weight to a greater extent than the corresponding single therapy and JQ1 alone,reduced tumor weight to a greater extent than the corresponding single therapy and JQ1 alone,
c1ccc2c(c1)Nc1ccccc1S2 [phenothiazine],,,,,MED1 abundance in BRD4 immunoprecipitation [5]: decreased MED1 abundance; pBRD4 levels (phospho-BRD4 (pBRD4)): rapid dephosphorylation of BRD4
"CC1(C)CCC(CN2CCN(c3ccc(C(=O)NS(=O)(=O)c4ccc(NCC5CCOCC5)c([N+](=O)[O-])c4)c(Oc4cnc5[nH]ccc5c4)c3)CC2)=C(c2ccc(Cl)cc2)C1 [ABT 199, 4-[4-[[2-(4-chlorophenyl)-4,4-dimethylcyclohexen-1-yl]methyl]piperazin-1-yl]-N-[3-nitro-4-(oxan-4-ylmethylamino)phenyl]sulfonyl-2-(1H-pyrrolo[2,3-b]pyridin-5-yloxy)benzamide]",substantial synergy,,reduced tumor weight to a greater extent than the corresponding single therapy and JQ1 alone,reduced tumor weight to a greater extent than the corresponding single therapy and JQ1 alone,
"CN(C)CC[C@H](CSc1ccccc1)Nc1ccc(S(=O)(=O)NC(=O)c2ccc(N3CCN(Cc4ccccc4-c4ccc(Cl)cc4)CC3)cc2)cc1[N+](=O)[O-] [ABT737, 4-[4-[[2-(4-chlorophenyl)phenyl]methyl]piperazin-1-yl]-N-[4-[[(2R)-4-(dimethylamino)-1-phenylsulfanylbutan-2-yl]amino]-3-nitrophenyl] sulfonylbenzamide]",substantial synergy,Significant synergy,,,
"O=C(O)c1ccc2c(c1)nc(Nc1cccc(Cl)c1)c1ccncc12 [CX-4945, 5-(3-chloroanilino)benzo[c][2,6]naphthyridine-8-carboxylic acid]",substantial synergy,Significant synergy,,,
